Consider 4 compounds from patent US20260069578A1, “TREATMENT OF NEUTROPHILIC DERMATOSES” (UNION THERAPEUTICS A/S, priority 2022, published 2026).

For data set [1], the target named is purified human recombinant PDE4D protein (Homo sapiens, UniProt Q08499). As to the kind of experiment: PDE4D scintillation proximity assay (SPA). Format: biochemical. As to the method:
PDE4 enzymatic activity was measured in a scintillation proximity assay using purified human recombinant PDE4D protein.

Data set [2] deals with PDE4A4 (Homo sapiens, UniProt P27815). Format: biochemical.
Data set [3] deals with PDE4A10 (Homo sapiens, UniProt P27815). Format: biochemical.
In data set [4] the target is PDE4B1 (Homo sapiens, UniProt Q07343). Format: biochemical. As to the method:
(§1) Enzyme Preparations: Partially purified human recombinant phosphodiesterases (PDEs) were obtained by cloning cDNA and expressing in S. frugiperda insect cells using a baculovirus expression system. Cells are harvested from culture by centrifuging at 400×g for 5 minutes. Cell pellet is resuspended in 20 ml of RIPA Buffer (150 mM NaCl, 10 mM Tris, 0.1% NP-40, pH8.3), 4 ml/200 ml of culture, plus protease inhibitors (100 μl/10 ml) and incubated on ice for 10-20 minutes then spun at 3500×g for 10 minutes at 4° C. Supernatant is kept and the pellet thrown away.
(§2) Tritium-labelled cyclic AMP is hydrolysed to 5′-AMP o by PDE. The 5′-AMP is then further hydrolysed to adenosine by nucleotidase in snake venom. An anion-exchange resin binds all charged nucleotides and leaves [^3H]adenosine as the only labelled compound to be counted by liquid scintillation.
(§3) 50 μl of diluted PDE enzyme was incubated with 50 μl of [^3H]-cAMP (specific activity 25 Ci/mmol) and 11 μl of 50% DMSO (or compound dilution) for 20 minutes at 30° C. The enzyme was diluted in 20 mM Tris HCl pH7.4 (×2.2 final concentration) and [3H]-cAMP was diluted in 10 mM MgCl2, 40 mM Tris HCl pH 7.4 (×2.2 final concentration). Reactions were carried out in Greiner 96 deep well 1 ml master-block. The plates were centrifuged for 9 seconds before the 20 minutes incubation. […] After incubation 200 μl Dowex resin (1×8, 200-400 mesh) was added and the plate shaken for 20 minutes then centrifuged for 3 minutes at 1000×g. 5 μl of supernatant was removed and added to 200 μl of MicroScint-20 in white plates (Greiner 96 well Optiplate) and shaken for 30 minutes before reading on Perkin Elmer TopCount Scintillation Counter. […] values were calculated using GraphPad Prism software (version 8).

In data set [5] the target is PDE4B2 (Homo sapiens, UniProt Q07343). Format: biochemical. The protocol: as §1, §2, §3
Data set [6] has as its target PDE4B3 (Homo sapiens, UniProt Q07343). Format: biochemical. As to the method: as §1, §2, §3
Data set [7] addresses PDE4D1 (Homo sapiens, UniProt Q08499). Format: biochemical. As to the method:
as §1, §2, §3

For data set [8], the target named is PDE4D2 (Homo sapiens, UniProt Q08499). Format: biochemical. To be noted: value generated by extrapolation of data. As to the method:
as §1, §2, §3

In data set [9] the target is PDE4D3 (Homo sapiens, UniProt Q08499). Format: biochemical. To be noted: value generated by extrapolation of data. The protocol:
as §1, §2, §3

The target of data set [10] is PDE4D5 (Homo sapiens, UniProt Q08499). Format: biochemical. As to the method: as §1, §2, §3
Data set [11] concerns the target PDE4D7 (Homo sapiens, UniProt Q08499). Format: biochemical. The protocol: as §1, §2, §3
The test system of data set [12] is pyoderma gangrenosum with concomitant HS / PASH syndrome. Briefly: Clinical study in two patients. Format: in vivo, human. The protocol: The efficacy of the peroral anti-inflammatory PDE4-inhibitor Orismilast was investigated in two patients, one with pyoderma gangrenosum and concomitant HS, the other with PASH syndrome. Patients received a titrated dose of Orismilast of up to 40 mg twice daily for 16 weeks.

The target of data set [13] is PDE4A1 (Homo sapiens, UniProt P27815).
Data set [14] deals with conscious, unrestrained ferret. As to the kind of experiment: Emesis study in ferrets. To be noted: oral, 1, 3, 10 and 30 mg/kg.
In data set [15] the test system is LPS-induced TNF-α. Briefly: LPS-induced TNF-α in ferrets after single oral administration. To be noted: LPS 3 mg/kg ip.
Data set [16] has as its system TNF-α secretion from human whole blood. Briefly: Whole blood TNF-α secretion assay (LPS or SEB stimulated). Format: cell-based. To be noted: 24 h, SEB 1 μg/mL, donor 2.
Data set [17] deals with resistant vegetative PG. To be noted: one case, concomitantly with oral prednisone; cited from earlier work.
Setting [18] is: Case 1, PASH syndrome, 20 mg twice daily.
Where [19] appears, read: Case 2, PG and HS, 30 plus 40 mg daily.

≈ marks a conversion by molar mass, not a printed value.

Chain of PDE4D7 (Q08499 1-748 isoform Q08499-11): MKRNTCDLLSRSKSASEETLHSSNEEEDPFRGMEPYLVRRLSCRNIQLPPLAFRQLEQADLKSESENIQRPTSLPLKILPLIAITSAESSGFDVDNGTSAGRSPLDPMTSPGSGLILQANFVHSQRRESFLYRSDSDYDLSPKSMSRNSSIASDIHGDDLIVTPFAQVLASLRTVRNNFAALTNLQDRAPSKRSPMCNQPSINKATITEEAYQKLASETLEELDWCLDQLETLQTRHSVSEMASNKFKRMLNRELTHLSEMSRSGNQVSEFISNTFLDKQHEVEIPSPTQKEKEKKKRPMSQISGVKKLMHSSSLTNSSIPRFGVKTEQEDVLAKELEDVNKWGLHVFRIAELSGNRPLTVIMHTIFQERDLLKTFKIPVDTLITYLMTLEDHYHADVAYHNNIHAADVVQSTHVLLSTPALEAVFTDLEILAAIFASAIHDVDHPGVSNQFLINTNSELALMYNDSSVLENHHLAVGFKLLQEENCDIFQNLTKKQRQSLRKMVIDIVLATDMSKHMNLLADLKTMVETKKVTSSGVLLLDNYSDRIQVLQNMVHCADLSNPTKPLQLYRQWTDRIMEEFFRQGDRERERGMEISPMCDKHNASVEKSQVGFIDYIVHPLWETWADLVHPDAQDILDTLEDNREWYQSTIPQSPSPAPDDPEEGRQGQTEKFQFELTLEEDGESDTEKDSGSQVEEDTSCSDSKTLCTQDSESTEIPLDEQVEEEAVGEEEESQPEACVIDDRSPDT
Chain of purified human recombinant PDE4D protein (Q08499 whole entry): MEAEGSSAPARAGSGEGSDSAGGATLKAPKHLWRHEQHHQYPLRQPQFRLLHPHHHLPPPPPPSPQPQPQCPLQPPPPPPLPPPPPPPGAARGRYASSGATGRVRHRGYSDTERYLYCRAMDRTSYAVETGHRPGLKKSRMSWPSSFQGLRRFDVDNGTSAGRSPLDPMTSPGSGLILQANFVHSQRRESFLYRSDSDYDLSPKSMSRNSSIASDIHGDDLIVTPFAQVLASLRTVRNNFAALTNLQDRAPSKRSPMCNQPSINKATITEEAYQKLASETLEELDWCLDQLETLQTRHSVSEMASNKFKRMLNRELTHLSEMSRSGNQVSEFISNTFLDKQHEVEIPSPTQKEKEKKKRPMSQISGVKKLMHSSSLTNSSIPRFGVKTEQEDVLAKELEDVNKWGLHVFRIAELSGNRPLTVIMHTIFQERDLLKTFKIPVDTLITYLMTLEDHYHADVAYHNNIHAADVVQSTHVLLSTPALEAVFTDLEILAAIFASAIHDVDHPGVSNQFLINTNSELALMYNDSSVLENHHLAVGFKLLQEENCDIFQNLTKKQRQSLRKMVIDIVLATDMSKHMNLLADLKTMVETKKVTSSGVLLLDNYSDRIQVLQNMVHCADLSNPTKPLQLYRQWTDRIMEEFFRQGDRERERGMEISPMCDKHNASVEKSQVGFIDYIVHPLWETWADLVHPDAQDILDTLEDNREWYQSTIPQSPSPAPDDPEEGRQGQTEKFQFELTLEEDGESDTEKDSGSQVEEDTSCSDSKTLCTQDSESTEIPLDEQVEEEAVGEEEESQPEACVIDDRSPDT
Chain of PDE4A10 (P27815 1-825 isoform P27815-6): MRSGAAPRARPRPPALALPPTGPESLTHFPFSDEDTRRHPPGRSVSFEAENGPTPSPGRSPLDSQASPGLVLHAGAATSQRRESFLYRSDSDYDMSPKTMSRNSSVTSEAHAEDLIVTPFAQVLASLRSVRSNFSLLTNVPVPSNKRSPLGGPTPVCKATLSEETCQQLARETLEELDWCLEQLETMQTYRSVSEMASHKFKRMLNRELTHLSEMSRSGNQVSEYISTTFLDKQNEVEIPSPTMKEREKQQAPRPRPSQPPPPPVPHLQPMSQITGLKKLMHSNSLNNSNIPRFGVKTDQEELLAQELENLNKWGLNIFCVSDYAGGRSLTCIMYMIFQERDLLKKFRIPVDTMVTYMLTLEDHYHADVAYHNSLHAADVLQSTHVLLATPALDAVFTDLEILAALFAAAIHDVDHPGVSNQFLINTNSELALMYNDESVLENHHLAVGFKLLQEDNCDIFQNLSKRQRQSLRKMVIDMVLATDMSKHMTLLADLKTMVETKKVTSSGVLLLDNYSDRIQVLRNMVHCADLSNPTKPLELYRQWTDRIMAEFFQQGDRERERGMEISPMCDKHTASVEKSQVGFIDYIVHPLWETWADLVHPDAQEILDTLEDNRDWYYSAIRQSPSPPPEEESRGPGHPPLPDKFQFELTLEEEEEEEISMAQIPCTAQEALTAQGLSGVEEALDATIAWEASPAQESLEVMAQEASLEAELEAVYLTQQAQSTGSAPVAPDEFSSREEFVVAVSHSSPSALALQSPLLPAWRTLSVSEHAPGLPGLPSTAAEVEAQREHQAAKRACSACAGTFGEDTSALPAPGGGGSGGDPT
Chain of PDE4D2 (Q08499 303-809): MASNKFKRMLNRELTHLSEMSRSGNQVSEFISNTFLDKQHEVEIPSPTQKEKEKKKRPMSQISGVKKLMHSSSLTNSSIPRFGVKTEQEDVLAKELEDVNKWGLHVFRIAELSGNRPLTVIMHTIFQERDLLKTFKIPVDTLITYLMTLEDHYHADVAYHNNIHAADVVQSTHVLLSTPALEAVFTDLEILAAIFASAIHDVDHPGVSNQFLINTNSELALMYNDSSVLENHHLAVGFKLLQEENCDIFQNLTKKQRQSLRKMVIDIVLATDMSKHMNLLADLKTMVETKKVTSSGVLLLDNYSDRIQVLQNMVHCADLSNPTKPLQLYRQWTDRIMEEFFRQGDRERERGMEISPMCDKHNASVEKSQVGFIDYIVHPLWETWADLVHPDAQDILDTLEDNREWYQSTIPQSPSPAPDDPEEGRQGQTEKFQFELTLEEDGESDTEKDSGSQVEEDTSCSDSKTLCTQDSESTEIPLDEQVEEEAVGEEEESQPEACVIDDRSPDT
Chain of PDE4B1 (Q07343 whole entry): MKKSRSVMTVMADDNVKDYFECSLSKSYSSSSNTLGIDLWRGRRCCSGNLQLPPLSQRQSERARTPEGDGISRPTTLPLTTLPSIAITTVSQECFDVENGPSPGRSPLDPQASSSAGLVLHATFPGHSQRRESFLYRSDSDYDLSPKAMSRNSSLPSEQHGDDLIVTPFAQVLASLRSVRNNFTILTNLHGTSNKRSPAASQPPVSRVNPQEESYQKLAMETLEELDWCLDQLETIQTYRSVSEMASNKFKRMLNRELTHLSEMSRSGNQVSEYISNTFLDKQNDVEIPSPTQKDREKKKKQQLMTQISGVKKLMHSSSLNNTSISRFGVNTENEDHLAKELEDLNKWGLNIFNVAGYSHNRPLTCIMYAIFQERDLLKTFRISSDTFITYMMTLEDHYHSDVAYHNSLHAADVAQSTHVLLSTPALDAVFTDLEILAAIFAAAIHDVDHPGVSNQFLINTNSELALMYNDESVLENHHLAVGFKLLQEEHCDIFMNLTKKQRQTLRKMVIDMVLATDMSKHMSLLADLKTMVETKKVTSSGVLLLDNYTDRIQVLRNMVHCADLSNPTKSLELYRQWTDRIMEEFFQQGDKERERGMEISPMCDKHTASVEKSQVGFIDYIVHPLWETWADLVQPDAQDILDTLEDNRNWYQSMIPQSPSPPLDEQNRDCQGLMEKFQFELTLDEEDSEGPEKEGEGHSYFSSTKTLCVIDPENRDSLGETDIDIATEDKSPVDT
Chain of PDE4B3 (Q07343 1-721 isoform Q07343-3): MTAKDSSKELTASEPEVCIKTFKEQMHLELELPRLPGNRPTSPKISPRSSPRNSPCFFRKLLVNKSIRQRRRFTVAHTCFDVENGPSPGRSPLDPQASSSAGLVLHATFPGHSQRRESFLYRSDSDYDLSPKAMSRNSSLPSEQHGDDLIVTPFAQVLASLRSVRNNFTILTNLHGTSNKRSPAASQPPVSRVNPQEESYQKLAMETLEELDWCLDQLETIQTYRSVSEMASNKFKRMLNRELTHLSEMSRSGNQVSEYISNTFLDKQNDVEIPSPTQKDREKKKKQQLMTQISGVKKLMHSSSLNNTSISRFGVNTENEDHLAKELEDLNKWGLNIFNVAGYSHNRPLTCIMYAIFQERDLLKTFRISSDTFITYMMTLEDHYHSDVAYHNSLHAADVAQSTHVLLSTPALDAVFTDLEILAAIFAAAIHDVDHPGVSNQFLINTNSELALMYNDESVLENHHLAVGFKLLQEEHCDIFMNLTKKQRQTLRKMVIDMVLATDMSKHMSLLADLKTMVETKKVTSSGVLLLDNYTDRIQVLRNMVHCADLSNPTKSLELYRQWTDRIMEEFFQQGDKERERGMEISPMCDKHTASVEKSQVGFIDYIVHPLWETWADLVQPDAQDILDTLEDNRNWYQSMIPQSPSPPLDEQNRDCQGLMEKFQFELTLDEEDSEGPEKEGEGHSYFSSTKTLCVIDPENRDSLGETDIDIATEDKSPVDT
Chain of PDE4B2 (Q07343 1-564 isoform Q07343-2): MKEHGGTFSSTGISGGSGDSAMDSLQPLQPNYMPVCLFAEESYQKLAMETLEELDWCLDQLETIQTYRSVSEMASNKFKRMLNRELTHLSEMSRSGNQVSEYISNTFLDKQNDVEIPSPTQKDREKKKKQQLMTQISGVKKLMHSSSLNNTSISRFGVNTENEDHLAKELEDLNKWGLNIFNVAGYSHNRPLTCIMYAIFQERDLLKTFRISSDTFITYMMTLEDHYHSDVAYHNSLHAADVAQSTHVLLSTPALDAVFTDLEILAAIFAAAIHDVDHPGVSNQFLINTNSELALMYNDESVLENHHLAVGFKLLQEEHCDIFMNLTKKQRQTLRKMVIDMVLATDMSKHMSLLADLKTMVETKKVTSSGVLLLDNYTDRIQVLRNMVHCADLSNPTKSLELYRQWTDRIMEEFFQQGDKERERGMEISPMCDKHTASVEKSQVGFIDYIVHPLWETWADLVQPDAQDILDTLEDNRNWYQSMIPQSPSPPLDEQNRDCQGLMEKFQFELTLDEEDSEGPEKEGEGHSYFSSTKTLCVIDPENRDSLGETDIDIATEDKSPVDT

Turning to `O=C(Cc1c(Cl)c[n+]([O-])cc1Cl)c1ccc(OC(F)F)c2c1OC1(CCS(=O)(=O)CC1)O2` [Compound (I), 2-(3,5-Dichloro-1-oxido-pyridine-4-yl)-1-(7-difluoro-methoxy-2′,3′,5′,6′-tetrahydro-spiro[1,3-benzodioxole-2, 4′-(4H)-thiopyran-1′,1′-dioxide]-4-yl)ethanone], the “EC50 values, PDE4D SPA” value in [1] is recorded as 7.5 ng/mL (≈ 0.0147 µM). Besides, the IC50 (in general, the concentration needed to halve the response being measured) is 11.3 nM in [2]; 52.3 nM in [3]; 15.7 nM in data set [4]; 5.6 nM in data set [5]; 2.94 nM in data set [6]; 8.67 nM in data set [7]. The IC50 was 2.03 nM in data set [8]; 1.75 nM in data set [9]; 2.18 nM in data set [10]; 2.94 nM in data set [11]; 16.4 nM in [13]. The results for the HS lesions result in data set [12] (setting [18]) and in [12] (setting [19]) were “gradually improved” and “remained calm”, respectively. The pyoderma wounds result was “slowly recovered” in data set [12] (setting [18]) and “completely healed” in data set [12] (setting [19]). The “Health status or body weight gain” value in data set [14] is listed as “not to influence”. The “Increase of TNF-α levels observed at 1 hour after LPS” value in data set [15] (oral, 1, 3 and 10 mg/kg) was “attenuated”.

For `O=C(Nc1c(Cl)cncc1Cl)c1ccc(OC(F)F)c(OCC2CC2)c1` [Roflumilast, reference compound], the “Health status or body weight gain” value in data set [14] is “did not influence”. The “Increase of TNF-α levels observed at 1 hour after LPS” value in data set [15] (oral, 1 and 3 mg/kg) is reported as “attenuated”.

For the compound `C[C@@H]1CCN(C(=O)CC#N)C[C@@H]1N(C)c1ncnc2[nH]ccc12` [Tofacitinib], the Emax (usually the maximal effect, on the per cent scale that the assay sets) in [16] worked out at 100%.

`CCOc1cc([C@@H](CS(C)(=O)=O)N2C(=O)c3cccc(NC(C)=O)c3C2=O)ccc1OC` [Apremilast]: the Lesion healing result in [17] is “Complete healing of one lesion and partial healing of another”.
